Target: T1, GPR158 (Homo sapiens, UniProt Q5T848)
T1 sequence (Q5T848 24-1215): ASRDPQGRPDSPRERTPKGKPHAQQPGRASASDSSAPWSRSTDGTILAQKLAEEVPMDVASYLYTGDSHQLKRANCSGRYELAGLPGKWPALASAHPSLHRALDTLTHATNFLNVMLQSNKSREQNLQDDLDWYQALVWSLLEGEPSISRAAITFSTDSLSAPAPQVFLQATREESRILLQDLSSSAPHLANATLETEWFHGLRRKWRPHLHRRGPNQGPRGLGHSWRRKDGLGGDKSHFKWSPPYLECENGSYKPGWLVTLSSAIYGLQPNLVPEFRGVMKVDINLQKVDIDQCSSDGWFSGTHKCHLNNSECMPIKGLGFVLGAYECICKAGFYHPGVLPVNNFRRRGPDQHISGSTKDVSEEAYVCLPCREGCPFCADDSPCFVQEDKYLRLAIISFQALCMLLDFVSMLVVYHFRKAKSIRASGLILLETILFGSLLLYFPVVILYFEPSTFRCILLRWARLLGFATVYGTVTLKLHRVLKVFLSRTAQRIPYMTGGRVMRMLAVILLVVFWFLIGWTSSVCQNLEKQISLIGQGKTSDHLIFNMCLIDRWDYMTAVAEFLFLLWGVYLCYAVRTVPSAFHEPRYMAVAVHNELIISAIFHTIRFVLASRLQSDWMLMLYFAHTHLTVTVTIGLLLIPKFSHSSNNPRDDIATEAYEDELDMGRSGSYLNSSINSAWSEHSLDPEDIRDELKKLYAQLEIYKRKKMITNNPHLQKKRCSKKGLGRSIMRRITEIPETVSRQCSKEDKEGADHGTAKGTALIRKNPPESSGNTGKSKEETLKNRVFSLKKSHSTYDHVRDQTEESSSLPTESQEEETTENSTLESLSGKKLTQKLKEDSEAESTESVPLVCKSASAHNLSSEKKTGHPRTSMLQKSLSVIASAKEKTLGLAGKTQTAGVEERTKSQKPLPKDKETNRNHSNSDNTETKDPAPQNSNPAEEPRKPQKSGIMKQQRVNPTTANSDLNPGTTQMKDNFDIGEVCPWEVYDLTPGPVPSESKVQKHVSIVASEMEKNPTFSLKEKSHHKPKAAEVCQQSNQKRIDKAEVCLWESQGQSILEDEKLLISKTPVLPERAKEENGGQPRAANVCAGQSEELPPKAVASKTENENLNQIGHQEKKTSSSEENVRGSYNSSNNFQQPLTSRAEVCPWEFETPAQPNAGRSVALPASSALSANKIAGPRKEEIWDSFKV
Test: BRET cAMP assay in HEK293 cells expressing GPR158
Assay type: cell-based
Design: expressed in transfected cells; host or cells: HEK293FT
Procedure: FIGS. 2A-2C. Taurine signals through GPR158 to regulate cAMP. A) Time course of taurine (100 μM) effect on cAMP concentration in HEK293 cells. Cells were transfected with indicated constructs and cAMP was measured by the BRET assay. B) Quantification of taurine effect on maximal amplitude of the cAMP response. Data shown represent mean±s.e.m. determined from 3-9 independent experiments performed in triplicate. ****p<0.001 (one-way ANOVA). Columns with no fill (Ctrl), columns with angled-line fill (Taurine) C) Comparison of glycine and taurine effects on GPR158-mediated changes in cAMP response. Glycine or taurine was applied to HEK293 cells expressing either GPR158 alone or with RGS7/Gβ5 and the CAMP change was subtracted from the background response in control cells not expressing GPR158. Data shown represent mean±s.e.m. determined from 3 independent experiments performed in triplicate. *p<0.05, ***p<0.01, ns=p>0.05 (one-way ANOVA) Columns with no fill (Ctrl), columns with short-line fill (Glycine), columns with angled-line fill (Taurine).
HEK293FT cells were seeded in a white flat-bottom 96 well plate (Greiner Bio-One) at 50,000 cells per well and transiently transfected using Metafectene Pro with the manufacturer instruction. 24 h after transfection in DMEM complete medium supplemented of 0.1% of Matrigel (Corning), cells were washed with BRET buffer (Dulbecco's Phosphate-Buffered Saline (PBS) containing 0.5 mM MgCl2 and 0.1% glucose). The RLuc (Renilla luciferase) substrate, coelenterazine H (Research Products International Corp, IL), were diluted at 5 μM in BRET buffer and added to cells. BRET measurements were made in living cells using a microplate reader (PHERAstar FSX; BMG Labtech) equipped with two emission photomultiplier tubes. All measurements were performed at 37 °C.
HEK293FT cells or U87 MG cells (ATCC HTB-14) when indicated were co-transfected with the CAMP sensor Camyel and with untagged receptors (respectively: empty vector, GPR158). BRET ratio was determined by calculating the ratio of the light emitted by RLuc (475 nm with a 30 nm band path width) over the light emitted by the Venus (535 nm with a 30 nm band path width) in order to measure an increase of the signal when cAMP increase. ΔBRET was calculated by subtracting the ctrl cell BRET result from GPR158 expressing cells BRET result in order to get specifically the signal from GPR158 removing all the non-specific signal. Finally, netBRET was calculated by subtraction of the baseline value (basal BRET ratio) recorded prior to glycine stimulation from the experimental BRET signal values and the resulting difference (netBRET ratio).

NCCS(=O)(=O)O [taurine, 2-aminoethanesulfonic acid]
type of agonism on GPR158: partial agonist
cAMP change (HEK293 cells expressing GPR158, taurine 100 μM): significant decrease in cAMP levels
cAMP change in parental cells (HEK293 cells without GPR158, taurine 100 μM): did not produce a response
cAMP change with co-expressed RGS7/Gβ5 (HEK293 cells, GPR158 + RGS7/Gβ5, taurine 100 μM): potentiated by co-expressing RGS7/Gβ5
GPR158-mediated suppression of cAMP compared with glycine (HEK293 cells, direct comparison): weaker than the effect of glycine

Source: patent US20260376293A1, “METHODS FOR STUDYING GPR158 PHARMACOLOGY AND IDENTIFICATION OF ITS LIGANDS” (UNIVERSITY OF FLORIDA RESEARCH FOUNDATION, INCORPORATED, priority 2022, published 2026)
